Data on five compounds can be found in BindingDB's records for doi:10.1016/S0960-894X(97)00406-X (1997).

Counter-ions that a name gives are not always drawn.

The test is described as follows: Compound was evaluated for the inhibition of Opioid receptor delta 1 binding to guinea pig brain membranes, using 0.2 nM [3H]naltrindole as radioligand.

In the case of `CN(C(=O)Cc1ccc(Cl)c(Cl)c1)C(CN1CCCC1)c1cccc(NC(=S)Nc2ccc(-c3c4ccc(=O)cc-4oc4cc(O)ccc34)c(C(=O)O)c2)c1` (stereo not given) [5-{3-[3-(1-{[2-(3,4-Dichloro-phenyl)-acetyl]-methyl-amino}-2-pyrrolidin-1-yl-ethyl)-phenyl]-thioureido}-2-(6-hydroxy-3-oxo-3H-xanthen-9-yl)-benzoic acid], the Ki worked out at 1.8 nM.
Compound `CN(C(=O)Cc1ccc(Cl)c(Cl)c1)[C@@H](CN1CCCC1)c1cccc(NC(=S)Nc2ccc(-c3c4ccc(=O)cc-4oc4cc(O)ccc34)c(C(=O)O)c2)c1` [5-{3-[3-((R)-1-{[2-(3,4-Dichloro-phenyl)-acetyl]-methyl-amino}-2-pyrrolidin-1-yl-ethyl)-phenyl]-thioureido}-2-(6-hydroxy-3-oxo-3H-xanthen-9-yl)-benzoic acid] registered an inhibition constant (Ki) of 86 nM.
The figure for `CN(C(=O)Cc1ccc(Cl)c(Cl)c1)[C@H](CN1CCCC1)c1cccc(NC(=S)Nc2ccc(-c3c4ccc(=O)cc-4oc4cc(O)ccc34)c(C(=O)O)c2)c1` [5-{3-[3-((S)-1-{[2-(3,4-Dichloro-phenyl)-acetyl]-methyl-amino}-2-pyrrolidin-1-yl-ethyl)-phenyl]-thioureido}-2-(6-hydroxy-3-oxo-3H-xanthen-9-yl)-benzoic acid] is 0.898 nM.
The figure for `CC(=O)Nc1cccc([C@H](CN2CCCC2)N(C)C(=O)Cc2ccc(Cl)c(Cl)c2)c1` [N-[(R)-1-(3-Acetylamino-phenyl)-2-pyrrolidin-1-yl-ethyl]-2-(3,4-dichloro-phenyl)-N-methyl-acetamide; hydrochloride] is 3070 nM; for `CC(=O)Nc1cccc([C@@H](CN2CCCC2)N(C)C(=O)Cc2ccc(Cl)c(Cl)c2)c1` [N-[(S)-1-(3-Acetylamino-phenyl)-2-pyrrolidin-1-yl-ethyl]-2-(3,4-dichloro-phenyl)-N-methyl-acetamide; hydrochloride] it is 14 nM.
